Values after ≈ are worked out from the molar mass of the structure shown.
Legend:
EC1002 aph(3′)-IV = experiment: organism not typed; format: cell-based; conditions: read-out: Compound MIC on Bacterial Strains: EC1002 aph(3′)-IV
Outline: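 Broth microdilution MICs per CLSI M7-A7, 2-fold dilutions in cation-adjusted Mueller Hinton broth, inoculum 5×10^5 CFU/ml, 18 h at 35 °C. Strains express aminoglycoside-modifying enzymes; MIC read by turbidity at 600 nm and confirmed visually.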

various bacteria = experiment: MICs of 44 and 45, representative strains and strains expressing aminoglycoside modifying enzymes; format: cell-based; conditions: Tables 7 and 8, frequently
Protocol: To compare microbiological activity of the test compounds, minimum inhibitory concentrations (MIC.s) were determined. Antibiotic MICs were obtained using the broth microdilution method according to Clinical and Laboratory Standards Institute (CLSI) approved guidelines (Methods for dilution antimicrobial susceptibility tests for bacteria that grow aerobically; approved standard—7th ed. CLSI document M7-A7. Clinical and Laboratory Standards Institute, Wayne, Pa., incorporated herein by reference in its entirety). Antibiotics were dissolved as specified by CLSI (Performance standards for antimicrobial susceptibility testing; Seventeenth informational supplement. CLSI document M100-S17. Clinical and Laboratory Standards Institute, Wayne, Pa., incorporated herein by reference in its entirety), and were serially diluted 2-fold in cation adjusted Mueller Hinton Broth (CaMHB) at 2× concentration. Bacterial inoculums were prepared in CaMHB by suspension of a colony from an agar plate that was prepared the previous day to obtain a final concentration of 5×10^5CFU/ml. The plates were incubated for 18 hours at 35° C. […] MIC.s were determined by reading the turbidity of plate wells using a SpectraMax Plus384 plate reader (Molecular Devices, Sunnyvale, Calif., USA) at 600 nm and were confirmed by visual inspection.

rats = experiment: Nephrotoxicity of test compounds in rats; conditions: once daily subcutaneous

Row | Compound | MIC (EC1002 aph(3′)-IV) | fold more active than 45 (MIC) (various bacteria) | Histopathology Results After 7 days of Dosing (rats; 30 mg/kg/day) | Histopathology Results After 14 days of Dosing (rats; 30 mg/kg/day) | Histopathology Results After 7 days of Dosing (rats; 60 mg/kg/day) | Histopathology Results After 14 days of Dosing (rats; 60 mg/kg/day)
1 | CN[C@@H]1[C@@H](O)[C@@H](O[C@@H]2[C@@H](O)[C@H](O[C@H]3O[C@H](CNC[C@H](O)CO)CC[C@H]3N)[C@@H](N)C[C@H]2NC(=O)[C@@H](O)CN)OC[C@]1(C)O [Compound 45, (S)-3-amino-N-((1R,2S,3S,4R,5S)-5-amino-4-((2R,3R,6S)-3-amino-6-(((S)-2,3-dihydroxypropylamino)methyl)tetrahydro-2H-pyran-2-yloxy)-2-((2R,3R,4R,5R)-3,5-dihydroxy-5-methyl-4-(methylamino)tetrahydro-2H-pyran-2-yloxy)-3-hydroxycyclohexyl)-2-hydroxypropanamide] | 1 to 8 µg/mL (≈ 1.64 to 13.1 µM) | – | – | – | – | –
2 | CN[C@@H]1C(O)[C@@H](OC2C(O)C(O[C@H]3O[C@H](CNC[C@@H](O)CO)CCC3N)[C@@H](N)C[C@H]2NC(=O)[C@@H](O)CN)OCC1(C)O (stereo partly shown) [Compound 44] | < 1 µg/mL | 2- to 4 fold | No change | No change | No change | Minimal Hyaline-droplet
